Source: ChEMBL document CHEMBL6121005 (Eur J Med Chem, 2025)
The source made the active and inactive calls. The calls are words filed in the database; no cut-off is given here.

Legend:
Cholinesterase [1] = target: T1, Cholinesterase (Homo sapiens, UniProt P06276); assay: Inhibition of human serum BuChE using butyrylthiocholine iodide as substrate at 10 uM incubated for 10 mins followed by substrate addition by DTNB reagent based Ellman's method relative to control
Acetylcholinesterase = Acetylcholinesterase (Homo sapiens, UniProt P22303); assay: Inhibition of human erythrocytes AChE measured after 10 mins by Ellman's method
Sequence of Acetylcholinesterase (P22303 whole entry): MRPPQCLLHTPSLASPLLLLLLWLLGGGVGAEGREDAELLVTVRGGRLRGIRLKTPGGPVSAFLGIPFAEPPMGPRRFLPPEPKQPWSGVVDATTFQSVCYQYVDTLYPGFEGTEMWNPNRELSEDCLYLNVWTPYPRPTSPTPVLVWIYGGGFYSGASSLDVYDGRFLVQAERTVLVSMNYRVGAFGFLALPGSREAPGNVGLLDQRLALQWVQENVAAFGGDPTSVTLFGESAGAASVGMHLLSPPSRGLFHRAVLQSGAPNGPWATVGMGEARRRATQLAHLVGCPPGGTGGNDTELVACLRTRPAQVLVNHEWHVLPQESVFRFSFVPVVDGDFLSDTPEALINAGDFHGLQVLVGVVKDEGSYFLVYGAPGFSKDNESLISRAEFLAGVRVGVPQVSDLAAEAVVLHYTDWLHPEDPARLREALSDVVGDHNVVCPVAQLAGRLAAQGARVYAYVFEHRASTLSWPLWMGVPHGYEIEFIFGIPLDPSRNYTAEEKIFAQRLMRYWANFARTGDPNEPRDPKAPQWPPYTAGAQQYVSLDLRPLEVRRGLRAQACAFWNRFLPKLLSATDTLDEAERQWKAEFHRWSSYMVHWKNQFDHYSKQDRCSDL

PC-12 [2] = assay: (§1) Neuroprotective activity against H2O2-induced rat PC12 cells assessed as protection against H2O2-induced apoptosis by measuring early apoptotic cells at 50 uM pretreated for 2 hrs followed by H2O2 addition and measured after 24 hrs by Annexin V-FITC/PI staining based flow cytometry analysis (reference value: 0.88 %); type: functional; settings: time 26 hrs
Mus musculus [3] = assay: Antialzheimer activity in amyloid beta (1 to 42 residues) induced ICR mouse assessed as increase in time spent within target quadrant at 5 mg/kg, po administered daily and measured after 15 to 19 days by Morris water maze test; type: functional, organism-based; settings: time 15-19 day
Mus musculus [4] = assay: Antialzheimer activity against amyloid beta (1 to 42)-induced ICR mouse cognitive deficit model assessed as increase in alternation performance at 5 mg/kg, po administered daily and measured on day 12 by Y-maze test relative to control; type: functional; settings: time 12 day
Mus musculus [5] = assay: Antialzheimer activity in scopolamine-induced ICR mouse assessed as increase in trajectory within target quadrant at 2.5 to 10 mg/kg, po administered daily and measured after 16 to 20 days by Morris water maze test; type: functional, organism-based; settings: dose 2.5-10 mg/kg, time 16-20 day
PC-12 [6] = assay: as §1, with “necrotic” for “early apoptotic”, “0.99” for “0.88”; type: functional; settings: time 26 hrs
Mus musculus [7] = assay: Antialzheimer activity in amyloid beta (1 to 42 residues) induced ICR mouse assessed as increase in distance travelled within target quadrant at 5 mg/kg, po administered daily and measured after 15 to 19 days by Morris water maze test; type: functional, organism-based; settings: time 15-19 day
Mus musculus [8] = assay: Antialzheimer activity against scopolamine-induced ICR mouse cognitive deficit model assessed as decrease in latency time at 2.5 to 10 mg/kg, po administrated daily and measured on last day of training by Morris water maze test; type: functional, organism-based; settings: dose 2.5-10 mg/kg
Mus musculus [9] = assay: Antialzheimer activity against scopolamine-induced ICR mouse cognitive deficit model assessed as latency time at 2.5 to 10 mg/kg, po administrated daily and measured on initial day of training by Morris water maze test; type: functional; settings: dose 2.5-10 mg/kg
Mus musculus [10] = assay: Antialzheimer activity in amyloid beta (1 to 42 residues) induced ICR mouse memory impairment model assessed as increase in trajectory after platform removal at 2.5 to 10 mg/kg, po administered daily and measured after 15 to 19 days by Morris water maze test; type: functional, organism-based; settings: dose 2.5-10 mg/kg, time 15-19 day
PC-12 [11] = assay: as §1, with “late” for “early”, “7.26” for “0.88”; type: functional; settings: time 26 hrs
Mus musculus [12] = assay: Antialzheimer activity against amyloid beta (1 to 42)-induced ICR mouse memory impairment model assessed as decrease in movement distance at 2.5 to 10 mg/kg, po administered daily and measured after 15 to 19 days by Morris water maze test; type: functional, organism-based; settings: dose 2.5-10 mg/kg, time 15-19 day
Mus musculus [13] = assay: Antialzheimer activity against amyloid beta (1 to 42)-induced ICR mouse memory impairment model assessed as mean escape latency at 2.5 to 10 mg/kg, po administered daily and measured after 15 to 19 days by Morris water maze test; type: functional, organism-based; settings: dose 2.5-10 mg/kg, time 15-19 day
[14] = Inhibition of H2O2-induced ROS release in rat PC12 cells assessed as mean fluorescence intensity at 50 uM preincubated for 2 hrs followed by H2O2 addition and measured after 24 hrs by DCFH-DA based flow cytometry analysis (reference value: 23904); type: functional, PC-12; settings: time 26 hrs
Mus musculus [15] = assay: Antialzheimer activity against scopolamine-induced ICR mouse cognitive deficit model assessed as decrease in movement distance at 2.5 to 10 mg/kg, po administrated daily and measured on last day of training by Morris water maze test; type: functional, organism-based; settings: dose 2.5-10 mg/kg
PC-12 [16] = assay: Cytoprotective against rat PC12 cells assessed as cell viability at 50 uM preincubated for 24 hrs and measured after 4 hrs by CCK-8 assay; type: functional, cell-based
PC-12 [17] = assay: as §1, with “viable” for “early apoptotic”, “90.8” for “0.88”; type: functional; settings: time 26 hrs
Cholinesterase [18] = target: T1, Cholinesterase; assay: Inhibition of human serum BuChE using butyrylthiocholine iodide as substrate incubated for 10 mins followed by substrate addition by DTNB reagent based Ellman's method
[19] = Cytotoxicity against rat PC12 cells assessed as cell viability at 50 uM preincubated for 24 hrs and measured after 4 hrs by CCK-8 assay; type: toxicity, cell-based, PC-12; settings: time 28 hrs, read-out: Activity
PC-12 [20] = assay: Antioxidant activity against H2O2-induced toxicity in rat PC12 cells at 12.5 uM preincubated for 2 hrs and measured after 24 hrs by CCK-8 assay; type: functional, cell-based; settings: time 26.0 hrs

T1 sequence (P06276 whole entry): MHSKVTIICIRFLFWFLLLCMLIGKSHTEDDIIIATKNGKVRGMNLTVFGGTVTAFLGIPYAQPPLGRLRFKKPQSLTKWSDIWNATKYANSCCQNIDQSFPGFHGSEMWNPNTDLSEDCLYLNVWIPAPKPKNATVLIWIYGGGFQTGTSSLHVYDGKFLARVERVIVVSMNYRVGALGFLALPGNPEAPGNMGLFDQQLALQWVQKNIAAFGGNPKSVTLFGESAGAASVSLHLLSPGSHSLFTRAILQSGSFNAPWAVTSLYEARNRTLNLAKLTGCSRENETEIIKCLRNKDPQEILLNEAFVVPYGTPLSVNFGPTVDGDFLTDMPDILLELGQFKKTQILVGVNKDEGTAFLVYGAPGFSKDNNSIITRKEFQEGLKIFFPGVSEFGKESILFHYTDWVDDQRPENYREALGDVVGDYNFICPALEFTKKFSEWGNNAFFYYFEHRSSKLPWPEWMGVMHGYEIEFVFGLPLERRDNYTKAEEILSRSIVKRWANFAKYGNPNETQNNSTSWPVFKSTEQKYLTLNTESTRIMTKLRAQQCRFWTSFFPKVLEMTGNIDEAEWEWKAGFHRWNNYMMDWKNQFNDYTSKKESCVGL

## COc1ccc2c3c1O[C@H]1C[C@@H](OC(=O)NCc4ccccc4C)C=C[C@@]31CCN(C)C2
Cholinesterase [1]
  inhibition: 9.54%

## COc1ccc2c3c1O[C@H]1C[C@@H](OC(=O)NC4CCN(Cc5ccccc5F)CC4)C=C[C@@]31CCN(C)C2
Cholinesterase [1]
  inhibition: 21.6%
Acetylcholinesterase
  IC50: 0.406 µM

## COc1ccc2c3c1O[C@H]1C[C@@H](OC(=O)NC4CCN(Cc5ccc(C#N)cc5)CC4)C=C[C@@]31CCN(C)C2
Cholinesterase [1]
  inhibition: 21.3%

## COc1ccc2c3c1O[C@H]1C[C@@H](OC(=O)NCc4ccc(C(F)(F)F)cc4)C=C[C@@]31CCN(C)C2
Cholinesterase [1]
  inhibition: 14.9%

## COc1ccc2c3c1O[C@H]1C[C@@H](O)C=C[C@@]31CCN(C)C2 [GALANTAMINE]
PC-12 [2]
  Activity: 11.5%
Mus musculus [3]
  Activity: Active
Mus musculus [4]
  Activity: 72.92%
Mus musculus [5]
  Activity: Active
PC-12 [6]
  Activity: 1.89%
Mus musculus [7]
  Activity: Active
Mus musculus [8]
  Activity: Active
Mus musculus [9]
  Time: 60 s
Mus musculus [10]
  Activity: Active
PC-12 [11]
  Activity: 17.3%
Mus musculus [12]
  Activity: Active
Mus musculus [13]
  Activity: Active
[14]
  Flu intensity: 89205
Mus musculus [15]
  Activity: Active
PC-12 [16]
  Activity: Active
PC-12 [17]
  Activity: 70.8%

## COc1ccc2c3c1O[C@H]1C[C@@H](OC(=O)NCc4ccc5[nH]ccc5c4)C=C[C@@]31CCN(C)C2
Cholinesterase [1]
  inhibition: 3.54%

## COc1ccc2c3c1O[C@H]1C[C@@H](OC(=O)NCc4ccccc4)C=C[C@@]31CCN(C)C2
Cholinesterase [1]
  inhibition: 10.4%

## COc1ccc2c3c1O[C@H]1C[C@@H](OC(=O)NC4CCN(Cc5ccc(C)cc5)CC4)C=C[C@@]31CCN(C)C2
Cholinesterase [1]
  inhibition: 28.7%

## COc1ccc2c3c1O[C@H]1C[C@@H](OC(=O)NC4CCN(Cc5ccc(F)cc5F)CC4)C=C[C@@]31CCN(C)C2
Cholinesterase [1]
  inhibition: 19.9%
Acetylcholinesterase
  IC50: 1.2 µM

## COc1ccc(Cc2ccc(CO[C@H]3C=C[C@@]45CCN(C)Cc6ccc(OC)c(c64)O[C@H]5C3)nc2)cc1
Cholinesterase [1]
  inhibition: 87%
Cholinesterase [18]
  IC50: 1.31 µM

## COc1cccc(Cc2ccc(CO[C@H]3C=C[C@@]45CCN(C)Cc6ccc(OC)c(c64)O[C@H]5C3)nc2)c1
Cholinesterase [1]
  inhibition: 88.2%
Cholinesterase [18]
  IC50: 1.07 µM

## COc1ccc2c3c1O[C@H]1C[C@@H](OC(=O)NCc4ccc(F)cc4F)C=C[C@@]31CCN(C)C2
Cholinesterase [1]
  inhibition: 13.5%

## COc1ccc2c3c1O[C@H]1C[C@@H](OC(=O)NC4CCN(Cc5ccc(OC(F)(F)F)cc5)CC4)C=C[C@@]31CCN(C)C2
Cholinesterase [1]
  inhibition: 26%
Acetylcholinesterase
  IC50: 0.451 µM

## COc1cc(CN2CCC(NC(=O)O[C@H]3C=C[C@@]45CCN(C)Cc6ccc(OC)c(c64)O[C@H]5C3)CC2)cc(OC)c1
Cholinesterase [1]
  inhibition: 12.9%

## COc1ccc2c3c1O[C@H]1C[C@@H](OC(=O)NC4CCN(Cc5cccc(F)c5)CC4)C=C[C@@]31CCN(C)C2
PC-12 [2]
  Activity: 5.71%
PC-12 [6]
  Activity: 1.27%
[19]
  viability at 4 h, 50 µM: > 90%
Cholinesterase [1]
  inhibition: 18.6%
PC-12 [11]
  Activity: 10.3%
[14]
  Flu intensity: 52051
Acetylcholinesterase
  IC50: 0.419 µM
PC-12 [16]
  Activity: Active
PC-12 [17]
  Activity: 82.7%

## COc1ccc2c3c1O[C@H]1C[C@@H](OCc4ccc(Cc5cccc(F)c5)cn4)C=C[C@@]31CCN(C)C2
Cholinesterase [1]
  inhibition: 92.3%
Cholinesterase [18]
  IC50: 0.743 µM

## COc1ccccc1Cc1ccc(CO[C@H]2C=C[C@@]34CCN(C)Cc5ccc(OC)c(c53)O[C@H]4C2)nc1
Cholinesterase [1]
  inhibition: 84.4%
Cholinesterase [18]
  IC50: 2.66 µM
Acetylcholinesterase
  IC50: 3.2 µM

## COc1ccc2c3c1O[C@H]1C[C@@H](OCc4ccc(Cc5ccccc5)cn4)C=C[C@@]31CCN(C)C2
Cholinesterase [1]
  inhibition: 91.2%
Cholinesterase [18]
  IC50: 1.5 µM

## COc1ccc2c3c1O[C@H]1C[C@@H](OC(=O)NC4CCN(Cc5ccccc5)CC4)C=C[C@@]31CCN(C)C2
PC-12 [2]
  Activity: 8.66%
PC-12 [20]
  Activity: Dose-dependent-effect
PC-12 [6]
  Activity: 1.35%
[19]
  viability at 4 h, 50 µM: > 90%
Cholinesterase [1]
  inhibition: 29.2%
PC-12 [11]
  Activity: 10.7%
[14]
  Flu intensity: 76256
Acetylcholinesterase
  IC50: 0.37 µM
PC-12 [16]
  Activity: Active
PC-12 [17]
  Activity: 79.3%
